Source: patent US20260217701A1, “SELECTIVE BET INHIBITORS AND USES THEREOF” (Tay Therapeutics Limited, priority 2022, published 2026)
Several values for one entry are separate records, joined by “and”; a condition that tells them apart may be missing. Equal entries are not always repeated.

System: collagen-induced arthritis
Test: Collagen-induced arthritis (CIA) model: clinical scores and paw volume; as to Animal paw volume percent change (%): reference of the scale not given here; as to Average animal paw volume percent change (%): reference of the scale not given here
Type: in vivo, Lewis rats
Settings: for Animal paw volume percent change (%) / Animal paw volume / clinical score left forelimb / clinical score right forelimb / clinical score right hind limb / clinical score, score (all limbs) / clinical score left hind limb: individual animals; for Average detailed clinical score, left forelimb / Average detailed clinical score, left hind limb / Average detailed clinical score, right forelimb / Average detailed clinical score, right hind limb / Average detailed clinical score, score / Average overall clinical score / Overall Clinical Score / Animal paw volume: Day 21; for Overall Clinical Score: individual animals 1-8
[1] = Day 21, R paw, group 7 CIA + Compound A 10 mg/kg
[2] = group 5 CIA + Compound A 1 mg/kg, 2nd section of table, 1st day (between Day 12 and Day 18)
[3] = group 5 CIA + Compound A 1 mg/kg, 2nd section of table, 1st day (between Day 12 and Day 18), 1 mg/kg
[4] = group 5 CIA + Compound A 1 mg/kg, 2nd section of table, 2nd day (between Day 12 and Day 18)
[5] = group 5 CIA + Compound A 1 mg/kg, 2nd section of table, 2nd day (between Day 12 and Day 18), 1 mg/kg
[6] = group 5 CIA + Compound A 1 mg/kg, 2nd section of table, 3rd day (between Day 12 and Day 18)
[7] = group 5 CIA + Compound A 1 mg/kg, 2nd section of table, 3rd day (between Day 12 and Day 18), 1 mg/kg
[8] = group 5 CIA + Compound A 1 mg/kg, Day 18
[9] = group 5 CIA + Compound A 1 mg/kg, Day 18, 1 mg/kg
[10] = group 5 CIA + Compound A 1 mg/kg, Day 19
[11] = group 5 CIA + Compound A 1 mg/kg, Day 19, 1 mg/kg
[12] = group 5 CIA + Compound A 1 mg/kg, Day 20
[13] = group 5 CIA + Compound A 1 mg/kg, Day 20, 1 mg/kg
[14] = group 6 CIA + Compound A 3 mg/kg, 2nd section of table, 1st day (between Day 12 and Day 18)
[15] = group 6 CIA + Compound A 3 mg/kg, 2nd section of table, 2nd day (between Day 12 and Day 18)
[16] = group 6 CIA + Compound A 3 mg/kg, 2nd section of table, 2nd day (between Day 12 and Day 18), 3 mg/kg
[17] = group 6 CIA + Compound A 3 mg/kg, 2nd section of table, 3rd day (between Day 12 and Day 18)
[18] = group 6 CIA + Compound A 3 mg/kg, 2nd section of table, 3rd day (between Day 12 and Day 18), 3 mg/kg
[19] = group 6 CIA + Compound A 3 mg/kg, Day 18
[20] = group 6 CIA + Compound A 3 mg/kg, Day 18, 3 mg/kg
[21] = group 6 CIA + Compound A 3 mg/kg, Day 19
[22] = group 6 CIA + Compound A 3 mg/kg, Day 19, 3 mg/kg
[23] = group 6 CIA + Compound A 3 mg/kg, Day 20
[24] = group 6 CIA + Compound A 3 mg/kg, Day 20, 3 mg/kg
[25] = group 7 CIA + Compound A 10 mg/kg, 2nd section of table, 1st day (between Day 12 and Day 18), 10 mg/kg
[26] = group 7 CIA + Compound A 10 mg/kg, 2nd section of table, 2nd day (between Day 12 and Day 18)
[27] = group 7 CIA + Compound A 10 mg/kg, 2nd section of table, 2nd day (between Day 12 and Day 18), 10 mg/kg
[28] = group 7 CIA + Compound A 10 mg/kg, 2nd section of table, 3rd day (between Day 12 and Day 18)
[29] = group 7 CIA + Compound A 10 mg/kg, 2nd section of table, 3rd day (between Day 12 and Day 18), 10 mg/kg

Cn1cc(-c2ccccc2)c(-c2cn(C)c(=O)c3[nH]c(-c4cnn(C(F)(F)F)c4)cc23)cc1=O [Compound A, 6-methyl-4-(1-methyl-2-oxo-5-phenyl-1,2-dihydropyridin-4-yl)-2-(1-(trifluoromethyl)-1H-pyrazol-4-yl)-1,6-dihydro-7H-pyrrolo[2,3-c]pyridin-7-one]
Average animal paw volume percent change (%) (Day 21, R paw, group 6 CIA + Compound A 3 mg/kg): 38.15%
Average animal paw volume [1]: 1.81 mL
Average animal paw volume percent change (%) [1]: 38.27%
Animal paw volume percent change (%) (Day 21, R paw, group 5 CIA + Compound A 1 mg/kg, 1 mg/kg): 73.56% and 88.03% and 50.91% and 70.19% and 18.45% and 55.51% and 49.81%
Animal paw volume percent change (%) (Day 21, R paw, group 6 CIA + Compound A 3 mg/kg, 3 mg/kg): 64.91% and 27.24% and 46.04% and 29.74% and 60.23%
Average detailed clinical score, left forelimb (CIA + Compound A 1 mg/kg): 1.00
Average detailed clinical score, left hind limb (CIA + Compound A 1 mg/kg): 4.00
Average detailed clinical score, right forelimb (CIA + Compound A 1 mg/kg): 1.00
Average detailed clinical score, right hind limb (CIA + Compound A 1 mg/kg): 3.75
Average detailed clinical score, score (CIA + Compound A 1 mg/kg): 9.75
Average overall clinical score (CIA + Compound A 1 mg/kg): 5
Overall Clinical Score (CIA + Compound A 1 mg/kg, 1 mg/kg): 0 and 6 (5×) and 8 and 2
Average detailed clinical score, left forelimb (CIA + Compound A 3 mg/kg): 0.00
Average detailed clinical score, left hind limb (CIA + Compound A 3 mg/kg): 2.50
Average detailed clinical score, right forelimb (CIA + Compound A 3 mg/kg): 1.25
Average detailed clinical score, right hind limb (CIA + Compound A 3 mg/kg): 2.75
Average detailed clinical score, score (CIA + Compound A 3 mg/kg): 6.50
Average overall clinical score (CIA + Compound A 3 mg/kg): 4
Overall Clinical Score (CIA + Compound A 3 mg/kg, 3 mg/kg): 5 (2×) and 3 (2×)
Average detailed clinical score, left forelimb (CIA + Compound A 10 mg/kg): 0.00
Average detailed clinical score, left hind limb (CIA + Compound A 10 mg/kg): 1.88
Average detailed clinical score, right forelimb (CIA + Compound A 10 mg/kg): 0.13
Average detailed clinical score, right hind limb (CIA + Compound A 10 mg/kg): 1.63
Average detailed clinical score, score (CIA + Compound A 10 mg/kg): 3.63
Average overall clinical score (CIA + Compound A 10 mg/kg): 4
Animal paw volume (L paw, Group 5 (CIA + Compound A 1 mg/kg), 1 mg/kg): 2.05 mL and 2.45 mL and 2.08 mL (2×) and 2.27 mL and 1.64 mL and 2.15 mL
Animal paw volume (L paw, Group 6 (CIA + Compound A 3 mg/kg), 3 mg/kg): 1.92 mL and 2.19 mL and 1.64 mL and 1.52 mL and 1.80 mL
Animal paw volume (R paw, Group 5 (CIA + Compound A 1 mg/kg), 1 mg/kg): 2.27 mL and 2.44 mL and 2.08 mL and 2.26 mL and 1.61 mL and 2.05 mL and 1.99 mL
Animal paw volume (R paw, Group 6 (CIA + Compound A 3 mg/kg), 3 mg/kg): 2.19 mL and 1.64 mL and 1.94 mL and 1.75 mL and 2.08 mL
clinical score left forelimb [2]: 0
clinical score right forelimb [2]: 0
clinical score right hind limb [3]: 0 (6×) and 1 (2×)
clinical score, score (all limbs) [3]: 0 (6×) and 2 and 1
clinical score left forelimb [4]: 0
clinical score right forelimb [4]: 0
clinical score left hind limb [5]: 0 (5×) and 2 and 1 (2×)
clinical score right hind limb [5]: 0 (5×) and 1 (3×)
clinical score, score (all limbs) [5]: 0 (3×) and 2 (2×) and 1 (3×)
clinical score left forelimb [6]: 0
clinical score right forelimb [6]: 0
clinical score left hind limb [7]: 0 (3×) and 2 (3×) and 1 (2×)
clinical score right hind limb [7]: 0 (3×) and 2 (2×) and 1 (3×)
clinical score, score (all limbs) [7]: 0 (3×) and 4 and 3 (3×) and 2
clinical score left forelimb [8]: 0
clinical score right forelimb [8]: 0
clinical score left hind limb [9]: 0 and 2 (3×) and 4 and 3 (2×) and 1
clinical score right hind limb [9]: 0 and 3 (4×) and 2 (2×) and 1
clinical score, score (all limbs) [9]: 0 and 5 (3×) and 7 and 6 and 2 and 4
clinical score left forelimb [10]: 0
clinical score right forelimb [10]: 0
clinical score left hind limb [11]: 0 and 3 (5×) and 4 and 1
clinical score right hind limb [11]: 0 and 3 (5×) and 4 and 2
clinical score, score (all limbs) [11]: 0 and 6 (5×) and 8 and 3
clinical score left forelimb [12]: 0
clinical score right forelimb [12]: 0
clinical score left hind limb [13]: 0 and 3 (5×) and 4 and 1
clinical score right hind limb [13]: 0 and 3 (5×) and 4 and 1
clinical score, score (all limbs) [13]: 0 and 6 (5×) and 8 and 2
clinical score left forelimb [14]: 0
clinical score right forelimb [14]: 0
clinical score left forelimb [15]: 0
clinical score right forelimb [15]: 0
clinical score left hind limb [16]: 0 (6×) and 1 (2×)
clinical score, score (all limbs) [16]: 0 (6×) and 1 and 3
clinical score left forelimb [17]: 0
clinical score right forelimb [17]: 0
clinical score left hind limb [18]: 0 (4×) and 1 (4×)
clinical score right hind limb [18]: 0 (5×) and 2 and 1 (2×)
clinical score, score (all limbs) [18]: 0 (4×) and 1 and 3 and 2 (2×)
clinical score left forelimb [19]: 0
clinical score right forelimb [19]: 0
clinical score left hind limb [20]: 2
clinical score right hind limb [20]: 2
clinical score, score (all limbs) [20]: 4
clinical score left forelimb [21]: 0
clinical score right forelimb [21]: 0
clinical score left hind limb [22]: 2
clinical score right hind limb [22]: 3 and 2
clinical score, score (all limbs) [22]: 5 and 4
clinical score left forelimb [23]: 0
clinical score right forelimb [23]: 0
clinical score left hind limb [24]: 2 and 3
clinical score right hind limb [24]: 3
clinical score, score (all limbs) [24]: 5
clinical score left forelimb (group 7 CIA + Compound A 10 mg/kg, 2nd section of table, 1st day (between Day 12 and Day 18)): 0
clinical score left hind limb [25]: 0 (7×) and 1
clinical score right hind limb [25]: 0 (6×) and 1 (2×)
clinical score, score (all limbs) [25]: 0 (6×) and 1 and 3
clinical score left forelimb [26]: 0
clinical score right forelimb [26]: 0
clinical score left hind limb [27]: 0 (6×) and 1 (2×)
clinical score right hind limb [27]: 0 (6×) and 2 and 1
clinical score, score (all limbs) [27]: 0 (5×) and 1 and 2 (2×)
clinical score left forelimb [28]: 0
clinical score right forelimb [28]: 0
clinical score left hind limb [29]: 1 (2×) and 0 (4×) and 2 (2×)
clinical score right hind limb [29]: 1 (2×) and 0 (5×) and 2
clinical score, score (all limbs) [29]: 2 and 0 (4×) and 1 and 4 and 3
